Reference: US20090270359A1, “SUBSTITUTED PYRAZOLE DERIVATIVES” (TAKEDA PHARMACEUTICAL COMPANY LIMITED, priority 2007, published 2009)
Residue numbers refer to the chain shown, from its start.

What was measured:
[1] = biological target: T1, wild type androgen receptor (AR) (Homo sapiens, UniProt P10275); experiment: AR-binding inhibition test, wild type (radio-labeled Mibolerone displacement); details: compound 1 μM; 3 nM radio-labeled Mibolerone; 4° C., 3 hours; dextran/charcoal method; read-out: Inhibitory rate (%) at 1 μM, wild type
T1 sequence (P10275 1-920): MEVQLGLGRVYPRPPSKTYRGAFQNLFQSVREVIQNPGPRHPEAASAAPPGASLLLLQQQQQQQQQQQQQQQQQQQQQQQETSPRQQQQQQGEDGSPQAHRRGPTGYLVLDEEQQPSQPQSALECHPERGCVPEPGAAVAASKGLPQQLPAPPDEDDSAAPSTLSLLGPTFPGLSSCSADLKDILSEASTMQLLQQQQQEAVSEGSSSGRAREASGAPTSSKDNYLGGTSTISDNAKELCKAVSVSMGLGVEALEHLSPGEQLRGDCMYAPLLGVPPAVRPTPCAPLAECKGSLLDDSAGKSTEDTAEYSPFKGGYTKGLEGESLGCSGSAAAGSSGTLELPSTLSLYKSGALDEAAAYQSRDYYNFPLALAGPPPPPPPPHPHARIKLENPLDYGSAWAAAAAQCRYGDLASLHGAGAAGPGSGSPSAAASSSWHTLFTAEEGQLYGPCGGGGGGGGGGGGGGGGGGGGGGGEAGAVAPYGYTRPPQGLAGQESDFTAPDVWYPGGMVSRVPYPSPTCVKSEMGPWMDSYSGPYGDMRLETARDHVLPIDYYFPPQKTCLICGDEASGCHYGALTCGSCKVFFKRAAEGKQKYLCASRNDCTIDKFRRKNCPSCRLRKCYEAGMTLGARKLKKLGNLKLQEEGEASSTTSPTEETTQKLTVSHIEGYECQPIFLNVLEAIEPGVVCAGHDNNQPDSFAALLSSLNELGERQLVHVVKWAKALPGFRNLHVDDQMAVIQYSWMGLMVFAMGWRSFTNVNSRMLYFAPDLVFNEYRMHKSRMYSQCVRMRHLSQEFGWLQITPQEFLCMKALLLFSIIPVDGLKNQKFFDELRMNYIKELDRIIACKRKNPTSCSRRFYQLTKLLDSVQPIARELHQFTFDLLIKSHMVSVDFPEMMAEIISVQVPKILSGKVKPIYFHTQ
Procedure: (§1) To a solution of wild type or LNCaP type mutant androgen receptor (AR) was added 3 nM radio-labeled Mibolerone and final concentration 1 μM of the compound. The mixture was incubated at 4° C. for 3 hours, and B (Bound) and F (Free) Mibolerones were separated by the dextran/charcoal method. The label count of B was measured and the inhibition rate of the compound was calculated.

[2] = biological target: T2, LNCaP type mutant androgen receptor (AR) (Homo sapiens, UniProt P10275, T878A); experiment: AR-binding inhibition test, LNCaP type (radio-labeled Mibolerone displacement); details: compound 1 μM; 3 nM radio-labeled Mibolerone; 4° C., 3 hours; dextran/charcoal method; read-out: Inhibitory rate (%) at 1 μM, LNCaP type
T2 sequence (P10275 1-920 T878A): T1 sequence (P10275 1-920) with T878A
Procedure: as §1

[3] = tested on: Human prostate cancer cells LNCaP-FGC; experiment: Prostate specific antigen (PSA) production inhibition test in prostate cancer cells; type: cell-based; details: Homo sapiens, 72 h; compound 1 μM; testosterone 0.1 ng/m; PSA in culture supernatant after 3 days by ELISA; testosterone non-addition group 100%, addition group 0%; read-out: Inhibitory rate (%) at 1 μM (PSA production suppression rate)
Procedure: Human prostate cancer cells LNCaP-FGC were plated in a 24 well plate at 40000 cells/1000 μL/well, and testosterone (final concentration 0.1 ng/m) and the compound (1 μM) were added the next day. The concentration of PSA in the culture supernatant after 3 days from the addition was measured by ELISA, and the PSA production suppression rate was calculated with the testosterone non-addition group as 100% and the testosterone addition group as 0%.

mutant AR (W741C) = biological target: T3, mutant AR (W741C) (Homo sapiens, UniProt P10275, W742C); experiment: AR transcription inhibition test (luciferase reporter in Cos-7 cells); type: cell-based; details: compound 1 μM, 0.1 μM DHT, luciferase activity after 24 hr, relative to control (0.1 μM DHT), read-out: Inhibitory rate (%) of mutant AR at 1 μM
T3 construct: expressed in transfected cells; host or cells: Cos-7
T3 sequence (P10275 1-920 W742C): T1 sequence (P10275 1-920) with W742C
Procedure: Cos-7 cells (5,000,000 cells) were inoculated to a flask, and incubated in a culture medium (DMEM+10% Dextran Charcoal (DCC)−Fetal Bovine Serum (FBS) and 2 mM glutamine) for 24 hours. Then, a vector DNA harboring mutant AR (W741C) and a vector DNA containing a luciferase gene bound at the downstream of an androgen responsive promoter were cotransfected by a liposome method. After 4 hr, the medium was changed and, after culture for 3 hr, DHT (dihydrotestosterone) at the final concentration of 0.1 μM and the compound at the final concentration of 1 μM were added. After further culture for 24 hr, the luciferase activity was measured, and the AR transcription inhibitory activity of the compound was examined.

## Cc1nn(Cc2ccc(S(N)(=O)=O)cc2)c(C)c1-c1ccc(C#N)c(Cl)c1 [Example 322, 4-{[4-(3-chloro-4-cyanophenyl)-3,5-dimethyl-1H-pyrazol-1-yl]methyl}benzenesulfonamide]
[1]
  inhibition at 1 µM: 84%
[2]
  inhibition at 1 µM: 83%
[3]
  inhibition at 1 µM: 108%
Mutant AR (W741C)
  inhibition at 1 µM: 24%

## Cc1nnc(-c2ccc(Cn3nc(C)c(-c4ccc(C#N)c(Cl)c4)c3C)cc2)o1 [Example 286, 2-chloro-4-{3,5-dimethyl-1-[4-(5-methyl-1,3,4-oxadiazol-2-yl)benzyl]-1H-pyrazol-4-yl}benzonitrile]
[1]
  inhibition at 1 µM: 85%
[2]
  inhibition at 1 µM: 89%
[3]
  inhibition at 1 µM: 107%
Mutant AR (W741C)
  inhibition at 1 µM: 67%

## Cc1nn(Cc2ccc(C(=O)NC3CC3)cc2)c(C)c1-c1ccc(C#N)c(Cl)c1 [Example 304, 4-{[4-(3-chloro-4-cyanophenyl)-3,5-dimethyl-1H-pyrazol-1-yl]methyl}-N-cyclopropylbenzamide]
[1]
  inhibition at 1 µM: 74%
[2]
  inhibition at 1 µM: 82%
[3]
  inhibition at 1 µM: 98.3%
Mutant AR (W741C)
  inhibition at 1 µM: 36%

## Cc1nn(Cc2ccc(C(=O)NCC(C)(C)O)cc2)c(C)c1-c1ccc(C#N)c(Cl)c1 [Example 282, 4-{[4-(3-chloro-4-cyanophenyl)-3,5-dimethyl-1H-pyrazol-1-yl]methyl}-N-(2-hydroxy-2-methylpropyl)benzamide]
[1]
  inhibition at 1 µM: 58%
[2]
  inhibition at 1 µM: 54%
[3]
  inhibition at 1 µM: 80%
Mutant AR (W741C)
  inhibition at 1 µM: 28%

## Cc1nn(Cc2ccc(C(N)=O)cc2)c(C)c1-c1ccc(C#N)c(Cl)c1 [Example 69, 4-{[4-(3-chloro-4-cyanophenyl)-3,5-dimethyl-1H-pyrazol-1-yl]methyl}benzamide]
[1]
  inhibition at 1 µM: 88%
[2]
  inhibition at 1 µM: 80%
[3]
  inhibition at 1 µM: 107%
Mutant AR (W741C)
  inhibition at 1 µM: 19%

## CNC(=O)c1ccc(Cn2nc(C)c(-c3ccc(C#N)c(Cl)c3)c2C)cn1 [Example 106, 5-{[4-(3-chloro-4-cyanophenyl)-3,5-dimethyl-1H-pyrazol-1-yl]methyl}-N-methylpyridine-2-carboxamide]
[1]
  inhibition at 1 µM: 49%
[2]
  inhibition at 1 µM: 79%
[3]
  inhibition at 1 µM: 110%
Mutant AR (W741C)
  inhibition at 1 µM: 38%

## Cc1nn(Cc2ccc(F)c(C(N)=O)c2)c(C)c1-c1ccc(C#N)c(Cl)c1 [Example 77, 5-{[4-(3-chloro-4-cyanophenyl)-3,5-dimethyl-1H-pyrazol-1-yl]methyl}-2-fluorobenzamide]
[1]
  inhibition at 1 µM: 78%
[2]
  inhibition at 1 µM: 68%
[3]
  inhibition at 1 µM: 102%
Mutant AR (W741C)
  inhibition at 1 µM: 92%

## Cc1nn(Cc2cccc(C(N)=O)c2)c(C)c1-c1ccc(C#N)c(Cl)c1 [Example 68, 3-{[4-(3-chloro-4-cyanophenyl)-3,5-dimethyl-1H-pyrazol-1-yl]methyl}benzamide]
[1]
  inhibition at 1 µM: 76%
[2]
  inhibition at 1 µM: 82%
[3]
  inhibition at 1 µM: 95.4%
Mutant AR (W741C)
  inhibition at 1 µM: 31%

## Cc1nn(Cc2ccc(C(N)=O)nc2)c(C)c1-c1ccc(C#N)c(C(F)(F)F)c1 [Example 311, 5-({4-[4-cyano-3-(trifluoromethyl)phenyl]-3,5-dimethyl-1H-pyrazol-1-yl}methyl)pyridine-2-carboxamide]
[1]
  inhibition at 1 µM: 29%
[2]
  inhibition at 1 µM: 29%
[3]
  inhibition at 1 µM: 85.8%
Mutant AR (W741C)
  inhibition at 1 µM: 17%

## Cc1nn(Cc2ccc(C(N)=O)nc2)c(C)c1-c1ccc(C#N)c(Cl)c1 [Example 105, 5-{[4-(3-chloro-4-cyanophenyl)-3,5-dimethyl-1H-pyrazol-1-yl]methyl}pyridine-2-carboxamide]
[1]
  inhibition at 1 µM: 66%
[2]
  inhibition at 1 µM: 75%
[3]
  inhibition at 1 µM: 109%
Mutant AR (W741C)
  inhibition at 1 µM: 32%

## Cc1nn(Cc2ccc(C(=O)NC3CC3)nc2)c(C)c1-c1ccc(C#N)c(Cl)c1 [Example 310, 5-{[4-(3-chloro-4-cyanophenyl)-3,5-dimethyl-1H-pyrazol-1-yl]methyl}-N-cyclopropylpyridine-2-carboxamide]
[1]
  inhibition at 1 µM: 70%
[2]
  inhibition at 1 µM: 73%
[3]
  inhibition at 1 µM: 106%
Mutant AR (W741C)
  inhibition at 1 µM: 72%

## Cc1nn(Cc2ccc(C(N)=O)cc2)c(C)c1-c1ccc(C#N)c(Cl)c1F [Example 337, 4-{[4-(3-chloro-4-cyano-2-fluorophenyl)-3,5-dimethyl-1H-pyrazol-1-yl]methyl}benzamide]
[1]
  inhibition at 1 µM: 71%
[2]
  inhibition at 1 µM: 72%
[3]
  inhibition at 1 µM: 104%
Mutant AR (W741C)
  inhibition at 1 µM: 36%
